In US5648386A (priority 1990, dated 1997):
“Also recorded” adds a separate entry of the source.

Columns and labels:
[1] = test system: β-receptors of the skeletal musculature; test: β-mimetic effect on skeletal musculature (BOWMAN and NOTT): tension of incompletely tetanically contracting M. soleus of anaesthetized cats i.v.; type: in vivo; conditions: for Reduction in tension in % (x): anaesthetized cats, M. soleus, n=5
Experimental: (§1) 1. […] They were also compared for their acute toxicity.
The β-mimetic effect on the skeletal musculature was tested using the method of BOWMAN and NOTT (Pharmacol. Rev. 21, 27 (1969)). This investigates the influence on the tension of the incompletely tetanically contracting M. soleus of anaesthetized cats after i.v. administration.

lambs = test: performance enhancing effect in lambs (feed, 6 weeks); type: in vivo, Suffolk×Galway wether lambs; conditions: for Weight of carcass / Final weight / Composition of carcass tissue (without bones): Protein / Feed utilization in g of weight gain per kg of feed / Composition of carcass tissue (without bones): Fat / Weight gain in g per day / Composition of carcass tissue (without bones): Water: 2 mg/kg in feed, 6 weeks; for Starting weight: baseline, control 34.4
Source text: 2. […] At the same time steps were taken to ensure that the lambs were offered at least 10% excess feed during the experimental period. The lambs were then killed and the following parameters were obtained: […]

animals = conditions: U.S. Pat. No. 4,407,819; cited from earlier work
mice = test: acute toxicity in male and female mice i.v.; type: in vivo
Experimental: as §1
(§2) The acute toxicity was measured in male and female mice weighing between 20 and 25 g after intravenous administration. An LD50 was calculated by […] from the percentage of animals which died within 14 days of being given the substance.

fat cells = test: β-mimetic effect on fat cells: lipolytic effect (free fatty acids in blood) in conscious rabbits i.v.; type: in vivo; conditions: for ED150 (dose which resulted in a 50% increase in the free fatty acid in the blood): conscious rabbits, linear regression, range in parentheses
Source text: as §1
The β-mimetic effect on the fat cells was investigated in terms of a lipolytic effect on conscious rabbits after i.v. administration.

[2] = acute toxicity in male and female mice i.v.; type: in vivo; conditions: mouse, in vivo, iv, male and female mice, death within 14 days, range in parentheses
Experimental: as §1, §2

[3] = overall comparison of the enantiomers (biological effects, use to risk); type: in vivo; conditions: (-)- vs (+)-cimaterol, words

| Structure (SMILES) | Reduction in tension in % (x) ([1]; dose 0.5 μg/kg) | Starting weight (lambs) | ED150 (dose which resulted in a 50% increase in the free fatty acid in the blood) (fat cells) | Weight of carcass (lambs; control 22.8, 2 mg/kg) | Final weight (lambs; control 45.4, 2 mg/kg) | Composition of carcass tissue (without bones): Protein (lambs; control 140, 2 mg/kg) | Feed utilization in g of weight gain per kg of feed (lambs; control 190, 2 mg/kg) | Composition of carcass tissue (without bones): Fat (lambs; control 248, 2 mg/kg) | Weight gain in g per day (lambs; control 259, 2 mg/kg) | Composition of carcass tissue (without bones): Water (lambs; control 501, 2 mg/kg) | other results |
| --- | --- | --- | --- | --- | --- | --- | --- | --- | --- | --- | --- |
| CC(C)NCC(O)c1ccc(N)c(C#N)c1 (racemic) [Cimaterol, 1-(4'-amino-3'-cyano-phenyl)-2-isopropylaminoethanol, reference compound] | 38.3% | 34.9 kg |  |  |  |  |  |  |  |  | Weight of carcass (lambs; control 22.8): 24.0 kg; Final weight (lambs; control 45.4): 46.0 kg; Composition of carcass tissue (without bones): Protein (lambs; control 140): 167 g per kg; Feed utilization in g of weight gain per kg of feed (lambs; control 190): 196 g of weight gain per kg of fee; Composition of carcass tissue (without bones): Fat (lambs; control 248): 265 g per kg; Weight gain in g per day (lambs; control 259): 275 g per day; Composition of carcass tissue (without bones): Water (lambs; control 501): 556 g per kg; performance-enhancing effect (animals): performance-enhancing effect |
| CC(C)NCC(O)c1ccc(N)c(C#N)c1 (single isomer, unassigned; (+)) [(+)-Cimaterol, (+)-1-(4'-Amino-3'-cyano-phenyl)-2-isopropylamino-ethanol] |  | 34.8 kg | 9.770 (7.440-12.700) μg/kg | 22.5 kg | 45.7 kg | 151 g per kg | 184 g of weight gain per kg of fee | 341 g per kg | 268 g per day | 501 g per kg | LD50 (mice; male and female mice, death within 14 days, range in parentheses, 20160 min): 86.3 (80.6-92.3) mg/kg; toxicity of the D-enantiomer compared with the L-enantiomer (mice; mice, words): the same toxicity as the L-enantiomer; Reduction in tension in % (x) ([1]; dose 50.0 μg/kg): 33.7%; doses needed to achieve a 50% increase in the free fatty acids, times greater than those of the corresponding L-enantiomer (fat cells; D- vs L-enantiomer, rabbits): about 100 times |
| CC(C)NCC(O)c1ccc(N)c(C#N)c1 (single isomer, unassigned; (-)) [(-)-Cimaterol, (-)-1-(4'-Amino-3'-cyano-phenyl)-2-isopropylamino-ethanol] | 42.1% | 34.2 kg | 0.098 (0.078-0.118) μg/kg | 24.1 kg | 48.0 kg | 177 g per kg | 220 g of weight gain per kg of fee | 252 g per kg | 324 g per day | 557 g per kg | LD50 at 336 h [2]: 74.8 mg/kg; times more effective than the corresponding D-enantiomer on the β-receptors of the skeletal musculature ([1]; L- vs D-enantiomer, cats): more than 100 times; carrier of the biological / desired effects of cimaterol [3]: the only carrier of the biological effects of cimaterol; also recorded: the sole carrier of the desired effects |
